Columns and labels:
[1] = system: lymphoblasts from SCA11-affected individuals; details: cycloheximide as inhibitor of nonsense-mediated decay; cited from earlier work
[2] = target: GST–TTBK2-(1–450) wild-type (Homo sapiens, UniProt Q6IQ55); assay: TTBK2 peptide kinase assay; type: biochemical
[3] = system: TTBK2[R181A or R181E] or TTBK2[A184G or A184E] mutants, GST–TTBK2-(1–450); assay: TTBK2 peptide kinase assay with phosphate-priming groove mutants; type: biochemical, human; details: read-out: Km of peptide phosphorylation by TTBK2 mutants, 0.1 mM [γ-32P]ATP, 20 min at 30 °C, non-linear regression

Sequence of GST–TTBK2-(1–450) wild-type (Q6IQ55 1-450): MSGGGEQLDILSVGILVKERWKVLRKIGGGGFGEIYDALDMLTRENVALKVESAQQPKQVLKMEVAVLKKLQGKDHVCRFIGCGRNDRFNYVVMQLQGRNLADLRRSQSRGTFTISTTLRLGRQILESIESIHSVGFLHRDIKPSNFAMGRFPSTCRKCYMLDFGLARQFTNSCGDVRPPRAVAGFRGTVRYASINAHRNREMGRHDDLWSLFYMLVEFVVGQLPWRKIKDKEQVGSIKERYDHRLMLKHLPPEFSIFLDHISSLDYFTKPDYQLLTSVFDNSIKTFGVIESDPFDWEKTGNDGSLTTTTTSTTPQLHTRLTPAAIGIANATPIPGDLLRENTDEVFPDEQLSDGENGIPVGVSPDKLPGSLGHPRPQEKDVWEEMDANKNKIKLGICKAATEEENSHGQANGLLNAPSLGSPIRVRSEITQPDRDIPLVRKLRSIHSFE

C[C@@H]1C[C@@H]([C@H](O)CC2CC(=O)NC(=O)C2)C(=O)[C@@H](C)C1 [cycloheximide]
TTBK2 mRNA level [1]: increased TTBK2 mRNA to levels that are similar in the normal transcript

RRKDLHDDEEDEAMS*ITA [CK1tide, reference compound]
peptide phosphorylation by TTBK2 (in words) ([2]; TTBK2-(1–450)): phosphorylates CK1tide specifically at this serine residue

RRKDLHDDEEDEAMSIYpA [TTBKtide]
Km [3]: 100 to 150 µM | decrease of Km value by introducing a phosphotyrosine at the +2 position ([2]; relative to CK1tide): approximately 8 fold | Vmax of peptide phosphorylation by TTBK2 ([2]; wild-type TTBK2, 0.1 mM [γ-32P]ATP, 20 min at 30 °C, non-linear regression): 76 units/mg
